{"source": "ChEMBL document CHEMBL1136552", "about": "“Synthesis and preliminary cytotoxicity of nitrogen mustard derivatives of distamycin A” (Bioorg Med Chem Lett, 2003)"}
{"system": "K562", "test": "Cytotoxicity against K562 leukemia cells in vitro, expressed as the minimal concentration necessary to inhibit incorporation of [3H]thymidine by 50%", "assay_type": "functional, cell-based", "conditions": "Homo sapiens, K562, 48 h", "units": {"IC50": "nM"}}
{"smiles": "CCCONc1cc(C(=O)Nc2cc(C(=O)Nc3cc(C(=O)Nc4ccc(N(CCCl)CCCl)cc4)n(C)c3)n(C)c2)n(C)c1", "IC50": 30}
{"smiles": "CCCC(=O)Nc1cc(/C=C/C(=O)Nc2ccc(N(CCCl)CCCl)cc2)n(C)c1", "IC50": 1200}
{"smiles": "CCCONc1cc(C(=O)Nc2ccc(N(CCCl)CCCl)cc2)n(C)c1", "IC50": 950}
{"smiles": "O=C(O)CCCc1ccc(N(CCCl)CCCl)cc1", "note": "[CHLORAMBUCIL]", "IC50": 35000}
{"smiles": "CCCONc1cc(C(=O)Nc2cc(C(=O)Nc3ccc(N(CCCl)CCCl)cc3)n(C)c2)n(C)c1", "IC50": 250}
{"smiles": "CCCC(=O)Nc1cc(/C=C/C(=O)Nc2cc(C(=O)Nc3ccc(N(CCCl)CCCl)cc3)n(C)c2)n(C)c1", "IC50": 210}
